# Values joined by “and” are separate entries in the source; they are usually repeats but may differ in a detail not shown here. Equal entries are not always repeated.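 Protocol summary: plate cells (96-well), add compound at 5 concentrations, incubate 48 h, interpolate endpoints linearly. GI50: concentration for 50% inhibition of growth. TGI denotes the concentration required for complete inhibition of growth.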 Where a SMILES comes first, the peptide text is derived from it. [ ]: non-standard residue; d: D form. The star is where a group is joined. ξ: configuration not given here. X6 = FC(F)(F)c1cc(NC(=S)*)cc(C(F)(F)F)c1; ξF = NC(Cc1ccccc1)C(=O)O
# Legend:
# Assay in all cases: DTP human tumour cell line panel, 48 h
# [1] = test system: RPMI-8226 leukemia
# [2] = test system: UACC-62 melanoma
# [3] = test system: SNB-19 CNS
# [4] = test system: CAKI-1 renal
# [5] = test system: LOX IMVI melanoma
# [6] = test system: A498 renal
# [7] = test system: IGROV1 ovarian
# [8] = test system: K-562 leukemia
# [9] = test system: NCI-H460 lung
# [10] = test system: A549 NSCLC
SMILES,GI50 [1],TGI [1],GI50 [2],TGI [2],GI50 [3],TGI [3],GI50 [4],TGI [4],GI50 [5],TGI [5],GI50 [6],TGI [6],GI50 [7],TGI [7],GI50 [8],TGI [8],GI50 [9],TGI [9],GI50 [10],TGI [10]
Cc1ccc(NC2=C(Cl)C(=O)N(Cc3ccccc3)C2=O)cc1O,9.26 µM,47.5 µM,24.4 µM,> 100 µM,41.2 µM,> 100 µM,28.1 µM,> 100 µM,18 µM,63.4 µM,7.18 µM,33.1 µM,35.4 µM,> 100 µM,17.8 µM,> 100 µM,34 µM,> 100 µM,42.1 µM,> 100 µM
Cc1coc2c1CC1(C)C(CCC(O)C1C)C2 (stereo not given),,> 100 µM,,> 100 µM,,> 100 µM,,> 100 µM,,> 100 µM,,> 100 µM,,> 100 µM,,> 100 µM,,> 100 µM,,> 100 µM
CC(C)=CC(=O)C1c2cccc(O)c2C(=O)c2c(O)cc(C)cc21 (stereo not given),,30.4 µM,,,,16.3 µM,,21.5 µM,,3.74 µM,,37.3 µM,,4.76 µM,,> 100 µM,,10.1 µM,,4.31 µM
COC1CCC(N2C(=O)CNc3ncc(-c4ccc(C(C)(C)O)nc4)nc32)CC1 (stereo not given),0.376 µM and 0.0559 µM,2.95 µM and 3.97 µM,0.237 µM and 0.111 µM,2.08 µM and 1.26 µM,2.02 µM and 1.57 µM,> 36.2 µM,0.412 µM,> 6.75 µM,1.35 µM and 0.329 µM,> 34.2 µM,0.0614 µM and 0.0422 µM,0.769 µM and 0.378 µM,0.315 µM and 0.0564 µM,2.8 µM and 1.64 µM,2.28 µM and 0.77 µM,> 100 µM,0.455 µM and 0.113 µM,> 46 µM,1.48 µM and 0.337 µM,> 34.5 µM
O=CN/C=C/c1cc(O)ccc1O,,78.2 µM,,27.3 µM,,> 100 µM,,25.8 µM,,28.1 µM,,> 100 µM,,71.4 µM,,52.9 µM,,> 100 µM,,> 85.4 µM
Cc1ccc(C(=O)/C(=C/c2ccc([N+](=O)[O-])cc2)SCc2ccc(Cl)cc2)cc1,0.24 µM,0.696 µM,1.34 µM,3.41 µM,1.17 µM,3.02 µM,1.7 µM,4.9 µM,0.445 µM,1.65 µM,24 µM,> 100 µM,2.23 µM,8.6 µM,,,2.58 µM,12 µM,98.5 µM,> 100 µM
NC(=O)c1sc(-n2cnc3ccccc32)cc1OCc1ccccc1Br,12.6 µM,> 25 µM,5.88 µM,> 25 µM,11.6 µM,> 25 µM,14.2 µM,> 25 µM,1.98 µM,> 25 µM,4.11 µM,14.4 µM,11 µM,> 25 µM,6.71 µM,> 25 µM,2.36 µM,> 25 µM,6.06 µM,> 25 µM
O=C1CC(c2ccc3c(c2)OCO3)Nc2ccccc21 (stereo not given),3.05 µM,13.3 µM,11.7 µM,30.3 µM,12.5 µM,30.2 µM,5.31 µM,47.5 µM,5.91 µM,20.5 µM,13.4 µM,28.7 µM,10.9 µM,47.8 µM,3.33 µM,> 100 µM,9.02 µM,33.7 µM,17.1 µM,76.6 µM
O=C(O)c1ccccc1[Se][Se]c1ccccc1C(=O)O,,> 100 µM,,82.8 µM,,45 µM,,> 100 µM,,76.1 µM,,> 100 µM,,> 100 µM,,> 100 µM,,> 100 µM,,> 100 µM
NC(Cc1c[nH]c2c(O)cccc12)C(=O)O (stereo not given),> 100 µM,> 100 µM,> 100 µM,> 100 µM,> 100 µM,> 100 µM,> 100 µM,> 100 µM,> 100 µM,> 100 µM,,,> 100 µM,> 100 µM,> 100 µM,> 100 µM,> 100 µM,> 100 µM,> 100 µM,> 100 µM
O=C(Nc1ccccc1)NS(=O)(=O)c1ccc(-n2nc3c(c2-c2cccs2)Cc2ccccc2-3)cc1,5.49 µM,66.4 µM,15.8 µM,35 µM,> 100 µM,> 100 µM,11.1 µM,44.1 µM,12 µM,33.6 µM,,,21.4 µM,> 100 µM,14 µM,76.2 µM,18.9 µM,> 100 µM,20.8 µM,> 100 µM
Cn1c2ccccc2c2c(Nc3ccccc3)c3ccccc3nc21,3.34 µM,30.5 µM,4.56 µM,18.6 µM,11.5 µM,> 100 µM,16.7 µM,38.7 µM,,,,,61.3 µM,> 100 µM,5.11 µM,> 100 µM,17.5 µM,41.1 µM,,
COc1ccc2c3c1C(=O)CCCC3CO2 (stereo not given),,> 100 µM,,> 100 µM,,> 100 µM,,,,> 100 µM,,> 100 µM,,> 100 µM,,> 100 µM,,> 100 µM,,> 100 µM
CC1=C(C(=O)Nc2ccc(Cl)c(Cl)c2)C(c2cccc(Oc3ccccc3)c2)NC(=S)N1 (stereo not given),11.2 µM,> 50 µM,7.81 µM,14.6 µM,7.07 µM,14.1 µM,8.48 µM,15.4 µM,7.48 µM,14.7 µM,,,7.72 µM,19 µM,12.4 µM,> 50 µM,7.57 µM,14.4 µM,9.51 µM,23.7 µM
NNC(=O)Nc1cccnc1,,> 100 µM,,> 100 µM,,> 100 µM,,> 100 µM,,> 100 µM,,> 100 µM,,> 100 µM,,> 100 µM,,,,> 100 µM
O=C1/C(=C/c2ccccc2)CN(C(=O)C(Cl)(Cl)Cl)C/C1=C\c1ccccc1,,0.314 µM,,3.43 µM,,10.7 µM,,,,2.18 µM,,13.7 µM,,5.32 µM,,3.26 µM,,4.17 µM,,32.4 µM
CC1(C)CCc2c(c3c(c4c(=O)c(O)c(-c5ccc(O)cc5)oc24)OC(C)(C)CC3)O1,> 100 µM,> 100 µM,> 100 µM,> 100 µM,33.6 µM,> 100 µM,> 100 µM,> 100 µM,90.5 µM,> 100 µM,,,> 100 µM,> 100 µM,> 100 µM,> 100 µM,48.7 µM,> 100 µM,> 100 µM,> 100 µM
O=CC[C@H]1C(=O)C[C@@H]2CCC[C@@H]21,,> 100 µM,,> 100 µM,,> 100 µM,,> 100 µM,,,,> 100 µM,,> 100 µM,,> 100 µM,,> 100 µM,,> 100 µM

SMILES,GI50 [1],TGI [1],GI50 [2],TGI [2],GI50 [3],TGI [3],GI50 [4],TGI [4],GI50 [5],TGI [5],GI50 [6],TGI [6],GI50 [7],TGI [7],GI50 [8],TGI [8],GI50 [9],TGI [9],GI50 [10],TGI [10]
Clc1ccc2c(NCCCCNc3nc(N4CCCCC4)nc4ccccc34)ccnc2c1,1.46 µM,3.94 µM,1.79 µM,3.48 µM,3.09 µM,14.2 µM,,,1.5 µM,3.14 µM,1.78 µM,4.62 µM,1.8 µM,6.59 µM,1.34 µM,4.1 µM,2.56 µM,9.03 µM,3.15 µM,10.3 µM
C/C(CC(=O)CCC(=O)Nc1cccc(C(F)(F)F)c1)=N\NC(=O)NN,,> 100 µM,,> 100 µM,,> 100 µM,,> 100 µM,,,,> 100 µM,,> 100 µM,,> 100 µM,,> 100 µM,,> 100 µM
O=C(/C=C/c1ccccc1)NC1C=Nc2ccc(Cl)cc2NC1=O (stereo not given),,,,> 100 µM,,> 100 µM,,> 100 µM,,55.9 µM,,> 100 µM,,> 100 µM,,59 µM,,51 µM,,> 100 µM
COC(=O)CC1CCN(C#N)CC1CC[N+](=O)[O-] (stereo not given),,> 100 µM,,> 100 µM,,> 100 µM,,> 100 µM,,,,> 100 µM,,> 100 µM,,> 100 µM,,> 100 µM,,> 100 µM
CCOC(=O)CN1C(=O)c2cccc3cc([N+](=O)[O-])cc(c23)C1=O,,,,5.2 µM,,32.3 µM,,,,2.74 µM,,30.6 µM,,14.8 µM,,2.03 µM,,17.3 µM,,26.6 µM
CC(C)C/C(CC(=O)CCC(=O)Nc1ccccc1[N+](=O)[O-])=N\NC(=O)c1cc2ccccc2cc1O,,> 100 µM,,80.5 µM,,> 100 µM,,> 100 µM,,79 µM,,,,> 100 µM,,> 100 µM,,> 100 µM,,> 100 µM
CCN(CCO)CC1CCCC2CCCCC21 (stereo not given),,> 100 µM,,> 100 µM,,> 100 µM,,> 100 µM,,,,> 100 µM,,> 100 µM,,> 100 µM,,> 100 µM,,> 100 µM
N#CC(c1ccc(Cl)cc1)c1cccc(C(C#N)c2ccc(Cl)cc2)n1 (stereo not given),,> 100 µM,,> 100 µM,,> 100 µM,,> 100 µM,,,,10.9 µM,,,,> 100 µM,,> 100 µM,,> 100 µM
CCCCCN(CCCCC)CCCNc1c2c(nc3ccc(Cl)cc13)CCCC2,1.98 µM,4.54 µM,4.36 µM,16.8 µM,4.96 µM,18.4 µM,2.18 µM,6.83 µM,2.06 µM,5.97 µM,1.72 µM,8.94 µM,1.49 µM,5.77 µM,,,2.28 µM,6.9 µM,3.29 µM,10.8 µM
Cc1cc(C)nc(NS(=O)(=O)c2ccc(NC(=O)c3ccc(Cl)c4c(Nc5ccc(S(=O)(=O)Nc6nc(C)cc(C)n6)cc5)c5ccccc5nc34)cc2)n1,,> 100 µM,,,,> 100 µM,,> 100 µM,,> 100 µM,,57.4 µM,,> 100 µM,,99 µM,,> 100 µM,,86.1 µM
CN1C(=O)C(C)(C)C2(SC(C)(C)C2(C)C)N(C)C1=S (stereo not given),,> 100 µM,,> 100 µM,,> 100 µM,,> 100 µM,,,,,,> 100 µM,,> 100 µM,,> 100 µM,,> 100 µM
COc1ccccc1C12OC(=O)C1(C)Oc1ccccc1C2=O (stereo not given),,> 100 µM,,> 100 µM,,> 100 µM,,,,> 100 µM,,> 100 µM,,> 100 µM,,> 100 µM,,> 100 µM,,> 100 µM
O=C(N/C(=C\c1ccc(/C=C(\NC(=O)c2ccccc2)c2nc3cc([N+](=O)[O-])ccc3[nH]2)cc1)c1nc2cc([N+](=O)[O-])ccc2[nH]1)c1ccccc1,,> 100 µM,,> 100 µM,,> 100 µM,,> 100 µM,,> 100 µM,,> 100 µM,,> 100 µM,,> 100 µM,,,,> 100 µM
COC1(OC)CCC2C1C1CCC(OC)(OC)C21 (stereo not given),,> 50 µM,,> 50 µM,,> 50 µM,,> 50 µM,,,,> 50 µM,,> 50 µM,,> 50 µM,,,,> 50 µM
CC(=O)NNc1nc(C)c(C(=O)NNC(=O)C(=O)Nc2c(Cl)cc([N+](=O)[O-])cc2Cl)s1,,> 100 µM,,86.2 µM,,> 100 µM,,,,> 100 µM,,66.3 µM,,> 100 µM,,> 100 µM,,> 100 µM,,> 100 µM
Cc1nc2ccccc2c(=O)n1-c1ccccc1I,,> 100 µM,,> 100 µM,,> 100 µM,,> 100 µM,,,,> 100 µM,,> 100 µM,,> 100 µM,,> 100 µM,,> 100 µM
COC(=O)[C@@H](NC(=O)CNC(=O)[C@H]1CCCN1C(=O)C(Cc1ccccc1)NC(=S)Nc1cc(C(F)(F)F)cc(C(F)(F)F)c1)C(C)C (stereo not given in full) (X6-[ξF][dP]GV-OMe),,,1.79 µM,3.98 µM,2.56 µM,9.49 µM,2.71 µM,10.5 µM,2.25 µM,5.55 µM,2.11 µM,7.92 µM,3.31 µM,10.3 µM,3.27 µM,30.1 µM,3.39 µM,12 µM,3.03 µM,14.4 µM

# Reference: PubChem BioAssay (NCI)
